Results from patent US20110144014A1, “CYTOKINE RECEPTOR MODULATORS AND USES THEREOF” (CENTRE HOSPITALIER UNIVERSITAIRE SAINTE-JUSTINE, priority 2005, published 2011).
Where a SMILES comes first, the peptide text is derived from it. Where no end group is shown, it is not given here. [ ]: non-standard residue; d: D form.

Assays:
[1] = molecular target: T1, IGF-1R (Homo sapiens, UniProt P08069); assay: IGF-1-induced tyrosine autophosphorylation of IGF-1R (Western Blot); assay type: cell-based; settings: peptides 10^−6M, 45 min; IGF-1 50 ng/ml; read-out: inhibition of IGF-1-induced phosphorylation
Procedure: Cells were incubated with anti-IGF-1R peptides (10^−6M) for 45 minutes and with IGF-1 at 50 ng/ml for either 15 minutes or 5 minutes. Western Blots (phosphorylated tyrosine antibody and IGF-1R antibody) were performed in non-denaturing conditions on total cell lysates (FIG. 17).
Target sequence in this assay (P08069 31-1367, species assumed): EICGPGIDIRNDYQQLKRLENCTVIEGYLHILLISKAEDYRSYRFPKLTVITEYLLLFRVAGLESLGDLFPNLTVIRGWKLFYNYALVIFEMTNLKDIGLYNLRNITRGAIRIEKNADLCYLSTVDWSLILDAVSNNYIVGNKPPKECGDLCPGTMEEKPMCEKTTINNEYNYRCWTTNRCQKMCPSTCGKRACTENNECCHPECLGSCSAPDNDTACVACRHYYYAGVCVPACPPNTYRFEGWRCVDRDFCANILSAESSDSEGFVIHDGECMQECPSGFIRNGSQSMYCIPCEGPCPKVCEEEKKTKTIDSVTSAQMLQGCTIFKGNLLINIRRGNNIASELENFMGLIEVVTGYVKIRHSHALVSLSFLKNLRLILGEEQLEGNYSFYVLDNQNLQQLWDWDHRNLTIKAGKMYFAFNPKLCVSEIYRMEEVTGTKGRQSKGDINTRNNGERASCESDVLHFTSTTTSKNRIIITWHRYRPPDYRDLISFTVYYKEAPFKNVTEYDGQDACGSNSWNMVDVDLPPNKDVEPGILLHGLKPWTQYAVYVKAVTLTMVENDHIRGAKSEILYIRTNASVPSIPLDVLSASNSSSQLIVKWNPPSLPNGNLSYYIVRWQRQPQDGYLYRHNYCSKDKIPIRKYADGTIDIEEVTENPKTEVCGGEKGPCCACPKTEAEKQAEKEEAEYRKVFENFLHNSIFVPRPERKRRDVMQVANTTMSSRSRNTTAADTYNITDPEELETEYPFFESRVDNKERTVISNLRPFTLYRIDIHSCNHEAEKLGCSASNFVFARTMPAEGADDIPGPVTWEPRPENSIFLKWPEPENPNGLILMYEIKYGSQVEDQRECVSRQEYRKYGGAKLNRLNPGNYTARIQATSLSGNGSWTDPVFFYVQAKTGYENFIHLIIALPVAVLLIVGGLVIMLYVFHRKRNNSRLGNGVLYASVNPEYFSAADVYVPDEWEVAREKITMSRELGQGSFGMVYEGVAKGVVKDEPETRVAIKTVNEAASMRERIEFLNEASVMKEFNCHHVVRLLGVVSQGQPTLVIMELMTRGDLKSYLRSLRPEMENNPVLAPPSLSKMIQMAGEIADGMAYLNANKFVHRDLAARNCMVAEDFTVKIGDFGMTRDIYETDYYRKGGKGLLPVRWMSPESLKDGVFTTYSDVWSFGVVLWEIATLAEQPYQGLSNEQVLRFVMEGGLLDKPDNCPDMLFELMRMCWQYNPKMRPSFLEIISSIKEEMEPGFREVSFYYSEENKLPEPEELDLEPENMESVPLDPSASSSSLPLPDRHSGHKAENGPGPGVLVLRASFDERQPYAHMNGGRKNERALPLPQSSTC

[2] = molecular target: T1, IGF-1R; assay: IGF-1 induced proliferation of MDA-MB-231 breast adenocarcinoma cells (3H-thymidine); assay type: cell-based; parameters: MDA-MB-231 breast adenocarcinoma cells; endogenous in cells; host or cells: MDA-MB-231; settings: for Emax: MDA-MB-231, read-out: Emax, in vitro cell proliferation assay; for EC50: read-out: EC50, in vitro cell proliferation assay
Procedure: (§1) We also tested the effect IGF-1R antagonist peptides on IGF-1 induced proliferation in other cancer cell types (MCF-7 breast carcinoma cells, HepG2 hepatocarcinoma cells, and MDA-MB-231 breast adenocarcinoma cells). Different cancer cells were pre-incubated (45 min.) with different concentrations of peptides prior to stimulation with IGF-1 (50 ng/ml) (37° C.) for 24 hours; fetal calf serum was omitted 24 hours prior to stimulation with IGF-1 to avoid proliferative effects by other mitotic agents. ^3H-thymidine (1 μCi/ml) was then added for 24 hours, after which cells were washed three times with 5% cold TCA and lysed with 0.1N NaOH/0.1% Triton X-100. Radioactivity was measured with a scintillation counter. Experiments were repeated 3 times in duplicates (FIG. 15).
Target sequence in this assay (P08069 31-736 limits assumed): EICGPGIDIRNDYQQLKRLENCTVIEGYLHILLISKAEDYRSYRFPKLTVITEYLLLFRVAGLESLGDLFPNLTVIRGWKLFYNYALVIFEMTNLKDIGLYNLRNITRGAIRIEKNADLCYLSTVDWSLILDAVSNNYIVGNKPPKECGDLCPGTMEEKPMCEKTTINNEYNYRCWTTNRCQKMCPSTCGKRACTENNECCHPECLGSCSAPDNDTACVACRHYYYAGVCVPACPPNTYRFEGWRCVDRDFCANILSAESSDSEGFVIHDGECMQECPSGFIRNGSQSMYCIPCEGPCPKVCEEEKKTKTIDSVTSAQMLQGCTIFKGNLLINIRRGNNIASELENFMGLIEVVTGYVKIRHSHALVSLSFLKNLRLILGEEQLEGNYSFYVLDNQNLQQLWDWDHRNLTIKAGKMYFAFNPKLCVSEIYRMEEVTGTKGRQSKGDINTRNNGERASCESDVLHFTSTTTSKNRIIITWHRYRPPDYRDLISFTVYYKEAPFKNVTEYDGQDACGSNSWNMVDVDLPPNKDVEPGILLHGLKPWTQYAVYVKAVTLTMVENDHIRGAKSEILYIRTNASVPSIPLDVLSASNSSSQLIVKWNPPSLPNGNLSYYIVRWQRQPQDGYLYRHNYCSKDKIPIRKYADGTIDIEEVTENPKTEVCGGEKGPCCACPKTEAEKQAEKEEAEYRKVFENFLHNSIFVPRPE
Target sequence in this assay (P08069 741-1367 limits assumed): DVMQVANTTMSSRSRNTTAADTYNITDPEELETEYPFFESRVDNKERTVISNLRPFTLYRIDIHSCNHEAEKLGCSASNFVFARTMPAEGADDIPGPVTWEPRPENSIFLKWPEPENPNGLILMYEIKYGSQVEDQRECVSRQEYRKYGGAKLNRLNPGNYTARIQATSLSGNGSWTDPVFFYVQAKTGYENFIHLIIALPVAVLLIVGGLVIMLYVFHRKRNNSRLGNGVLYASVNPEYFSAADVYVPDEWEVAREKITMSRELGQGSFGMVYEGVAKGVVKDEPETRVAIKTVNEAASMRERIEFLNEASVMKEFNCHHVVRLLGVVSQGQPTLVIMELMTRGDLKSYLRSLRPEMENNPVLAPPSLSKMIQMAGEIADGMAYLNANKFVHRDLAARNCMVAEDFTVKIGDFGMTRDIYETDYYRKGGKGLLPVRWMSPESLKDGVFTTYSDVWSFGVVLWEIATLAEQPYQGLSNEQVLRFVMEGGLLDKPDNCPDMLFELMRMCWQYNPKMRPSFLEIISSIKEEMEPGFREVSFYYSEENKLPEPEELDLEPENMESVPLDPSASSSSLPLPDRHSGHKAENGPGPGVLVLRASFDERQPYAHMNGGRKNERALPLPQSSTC

[3] = molecular target: T1, IGF-1R; assay: IGF-1 induced proliferation of MCF-7 breast carcinoma cells (3H-thymidine); assay type: cell-based; parameters: MCF-7 breast carcinoma cells; endogenous in cells; host or cells: MCF-7; settings: for inhibition / Emax: MCF7; for inhibition: read-out: efficacy, inhibition of MCF-7 proliferation
Procedure: as §1, with “15). […]” for “15).”
Target sequence in this assay (P08069 31-736 limits assumed): as the sequence (P08069 31-736 limits assumed) above
Target sequence in this assay (P08069 741-1367 limits assumed): as the sequence (P08069 741-1367 limits assumed) above

[4] = molecular target: T2, IGF-1R (Rattus norvegicus, UniProt P24062); assay: Ex vivo IGF-1-induced vasorelaxation of rat aorta; settings: IGF-1 25 ng/ml; phenylephrine pre-constriction; read-out: Emax, inhibition of ex vivo IGF-1-induced vasorelaxation of rat aorta
T2 construct: from tissue; host or cells: aorta
T2 sequence (P24062 31-1370): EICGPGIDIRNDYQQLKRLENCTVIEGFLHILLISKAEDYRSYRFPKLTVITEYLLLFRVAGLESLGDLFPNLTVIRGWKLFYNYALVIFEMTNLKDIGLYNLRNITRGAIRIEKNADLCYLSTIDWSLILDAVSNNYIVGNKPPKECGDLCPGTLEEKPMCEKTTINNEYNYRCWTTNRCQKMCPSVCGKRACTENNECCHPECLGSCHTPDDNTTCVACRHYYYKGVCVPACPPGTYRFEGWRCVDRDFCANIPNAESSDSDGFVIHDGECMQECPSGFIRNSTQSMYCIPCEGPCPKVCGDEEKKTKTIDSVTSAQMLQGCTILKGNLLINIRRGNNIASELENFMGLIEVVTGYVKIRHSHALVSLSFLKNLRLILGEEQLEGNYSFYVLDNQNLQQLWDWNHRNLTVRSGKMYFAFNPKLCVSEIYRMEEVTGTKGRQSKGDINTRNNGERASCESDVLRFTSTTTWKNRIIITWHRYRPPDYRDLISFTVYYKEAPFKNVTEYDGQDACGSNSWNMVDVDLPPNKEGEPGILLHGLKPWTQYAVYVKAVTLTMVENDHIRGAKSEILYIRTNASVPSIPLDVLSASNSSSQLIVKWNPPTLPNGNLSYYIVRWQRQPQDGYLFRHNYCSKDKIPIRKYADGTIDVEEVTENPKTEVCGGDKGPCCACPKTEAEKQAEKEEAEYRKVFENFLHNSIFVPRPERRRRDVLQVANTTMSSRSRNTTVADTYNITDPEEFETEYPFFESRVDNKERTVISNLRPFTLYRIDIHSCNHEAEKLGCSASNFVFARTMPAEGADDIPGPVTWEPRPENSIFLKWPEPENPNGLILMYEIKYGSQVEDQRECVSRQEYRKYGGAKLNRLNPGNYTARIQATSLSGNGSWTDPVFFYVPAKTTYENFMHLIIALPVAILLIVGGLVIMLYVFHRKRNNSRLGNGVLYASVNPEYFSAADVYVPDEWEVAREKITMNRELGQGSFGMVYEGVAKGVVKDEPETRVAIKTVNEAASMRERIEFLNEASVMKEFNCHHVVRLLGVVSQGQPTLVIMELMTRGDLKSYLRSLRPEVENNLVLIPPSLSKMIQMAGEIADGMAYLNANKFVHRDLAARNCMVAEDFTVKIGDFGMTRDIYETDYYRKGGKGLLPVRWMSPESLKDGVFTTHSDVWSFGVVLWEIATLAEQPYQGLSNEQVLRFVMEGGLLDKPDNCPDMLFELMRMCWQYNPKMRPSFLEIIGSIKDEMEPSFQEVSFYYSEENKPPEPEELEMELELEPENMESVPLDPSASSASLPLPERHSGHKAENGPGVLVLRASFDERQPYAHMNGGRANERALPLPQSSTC
Procedure: Aortas were first incubated with different concentrations of peptides and phenylephrine to induce aorta constriction. IGF-1 (25 ng/ml) was then added to induce vasorelaxation. The results are expressed relative to a control aorta not incubated with the peptides. Vascular diameter was measured using a digital image analyzer. Vascular diameter was recorded before and after topical application of pre-constricting agent. After stabilization of the preparation, the ligand (IGF-1, 25 ng/ml) was added until stable vasodilation was detected. Peptides were subsequently added at different concentrations from 10^−8 to 10^−6 M. Reversal of vasodilatation was visualized and measured as described, for example, by Hou et al. (Am. J. Physiol. Regul. Integr. Comp. Physiol. 284:R928-R935 (2003)), Hou et al. (Stroke 31:516-524; discussion 525 (2000)), and Hou et al. (Am. J. Physiol. Regul. Integr. Comp. Physiol. 281:R391-R400 (2001)). Triplicate measurements were conducted on 2 animals.

[5] = molecular target: T1, IGF-1R; assay: IGF-1-induced proliferation of NIH3T3 cells transfected with human IGF-1R cDNA (3H-thymidine); assay type: cell-based; parameters: expressed in transfected cells; host or cells: NIH3T3; settings: NIH3T3-IGF-1R cells; IGF-1 50 ng/ml
Procedure: Derivatives of APG-203 and APG-206 peptides were truncated to determine peptide regions important for activity. Peptides were assayed for efficacy and potency with an ^3H-thymidine incorporation assay. In short, the ^3H-thymidine incorporation proliferation assay was performed in NIH3T3 cells transfected with human IGF-1R cDNA in presence of IGF-1 50 ng/ml and different concentrations of peptides.
Target sequence in this assay (P08069 31-1367): as the sequence (P08069 31-1367, species assumed) above

[6] = molecular target: T1, IGF-1R; assay: IGF-1 induced proliferation of A549 carcinoma cells (3H-thymidine); assay type: cell-based; parameters: endogenous in cells; host or cells: A549
Procedure: The proliferation induced by IGF-1 was measured in A549 carcinoma cells in the presence of peptides APG201; APG202 and APG204 and of IGF-1 (10 ng/ml-FIG. 8A) and (1 ng/ml-FIG. 8B) pursuant to the incorporated tritiated thymidine method. The cells were preincubated at 37° C. with the different peptides at different concentrations, namely 10^−7, 10^−6 and 10^−5M. The cells were then incubated with IGF-1 (10 ng/ml or 1 ng/ml) for 24 hours and contacted with ^3H-Thymidine for 24 hours, washed, and lysed. Radioactivity levels were measured with a scintillation counter.
Target sequence in this assay (P08069 31-736 limits assumed): as the sequence (P08069 31-736 limits assumed) above
Target sequence in this assay (P08069 741-1367 limits assumed): as the sequence (P08069 741-1367 limits assumed) above

[7] = system: VEGFR2 (Flk-1); assay: VEGF induced proliferation of microvascular endothelial cells (3H-thymidine); assay type: cell-based, porcine; settings: VEGF 2 ng/ml
Procedure: (§2) To determine the efficient and non-cytotoxic concentration of VEGF to use in the assay, a dose-response curve of VEGF was generated in two types of cells, namely microvascular endothelial cells and pulmonary artery endothelial cells (PAEC) that had been transfected with the Flk-1 gene. The proliferation was then measured in those two types of cells in the presence of peptides 2.1, 2.2 and 2.3 and of VEGF (2 ng/ml) pursuant to the incorporated tritiated thymidine method. The cells were preincubated at 37° C. with the different peptides at different concentrations. They were incubated with VEGF (2 ng/ml) for 24 hours. The cells were contacted with ^3H-Thymidine for 24 hours, washed and lysed. The radioactivity was measured with a scintillation counter.

[8] = system: neovascularization in rat retinas; assay: Ischemic retinopathy model; assay type: in vivo; settings: rat pups, 80% O2 then normoxia; intravitreal, 10 μM final
Procedure: The efficiency of the selected peptides was verified in vivo in a ischemic retinopathy model, a phenomena highly dependent on VEGF activation. Rat pups were exposed to 80% O2 followed by a period of normoxia (21% O2). The peptides were injected at a final concentration of 10 μM in the vitreous body. The retinas were then retrieved, colored with the ADPase method and mounted on slides. Photographs of the retinas were taken with a microscope linked to a computer and the vascular density was evaluated with the Imagepro software.

[9] = molecular target: T3, VEGFR2 (Flk-1) (Homo sapiens, UniProt P35968); assay: VEGF induced proliferation of PAEC transfected with the Flk-1 gene (3H-thymidine); assay type: cell-based; settings: VEGF 2 ng/ml
T3 construct: expressed in transfected cells; host or cells: pulmonary artery endothelial cells (PAEC)
Procedure: as §2

[10] = molecular target: T1, IGF-1R; assay: IGF-1 induced proliferation of HepG2 hepatocarcinoma cells (3H-thymidine); assay type: cell-based; parameters: HepG2 hepatocarcinoma cells; endogenous in cells; host or cells: HepG2; settings: for Emax: read-out: Emax, in vitro cell proliferation assay
Procedure: as §1
Target sequence in this assay (P08069 31-736 limits assumed): as the sequence (P08069 31-736 limits assumed) above
Target sequence in this assay (P08069 741-1367 limits assumed): as the sequence (P08069 741-1367 limits assumed) above

[11] = MCF-7, IGF-1 50 ng/ml, read-out: Emax, in vitro cell proliferation assay
[12] = MCF-7 (breast cancer) cells, Table 5, read-out: Emax
[13] = A549, IGF-1 10 ng/ml or 1 ng/ml

Row | Emax ([2]; MB-MDA-231, IGF-1 50 ng/ml) [%] | inhibition ([3]; IGF-1 50 ng/ml) [%] | Emax [3, 11] [%] | Emax [4] [%] | Emax [5] [%] | Compound | further results
1 | 100 | ≤ 90 | 90 | 25 | – | IRKYADGTI [APG-204] | inhibition at 1 µM [1]: 30%
2 | – | – | – | – | 75 | KERTVLS [APG-206.5, KERTVLS] | Emax [3, 12]: 100%
3 | – | – | 20 | – | – | CC(C)C[C@@H](NC(=O)[C@H](NC(=O)[C@@H](CC(=O)O)NC(=O)[C@@H](CO)NC(=O)[C@H](N)CCC(=O)O)C(C)C)C(=O)N[C@H](Cc1c[nH]cn1)C(=O)N[C@H](Cc1ccccc1)C(=O)N[C@@H](C(=O)N[C@H](CO)C(=O)N[C@@H](C(=O)O)[C@H](C)O)[C@H](C)O [APG-202] (H-[dE][dS][dD][dV][dL][dH][dF][dT][dS][dT]-OH; N-terminus and C-terminus assumed) | IGF-1 induced proliferation [6, 13]: completely abrogated; EC50 ([6]; A549, IGF-1 10 ng/ml or 1 ng/ml, read-out: EC50, IGF-1 induced proliferation): 10 nM; EC50, in vitro cell proliferation assay ([2]; MB-MDA-231, IGF-1 50 ng/ml): Not active
4 | – | – | – | – | 90 | TVLSNL [APG-206.9, TVLSNL] | IC50 [5]: 20 nM
5 | 100 | ≤ 90 | 60 | 25 | – | ENFLHLLLA [APG-205] | –
6 | – | – | – | – | 100 | ERTVLSNL [APG-206.7] | Emax [3, 12]: 90%
7 | – | – | – | – | – | CC(C)C[C@@H](NC(=O)[C@@H](CCCNC(=N)N)NC(=O)[C@H](NC(=O)[C@@H](CCCNC(=N)N)NC(=O)[C@@H](CCC(=O)O)NC(=O)CNC(=O)[C@H](NC(=O)[C@H](NC(=O)[C@@H](C)NC(=O)[C@H](N)CCC(=O)O)[C@H](C)O)C(C)C)C(C)C)C(=O)O [Peptide 2.2] (H-[dE][dA][dT][dV]G[dE][dR][dV][dR][dL]-OH; N-terminus and C-terminus assumed) | VEGF induced proliferation [7]: completely abrogated; induced neovascularization [8]: most effective inhibitor of neovascularization; EC50 [9]: 9000 nM
8 | – | ≤ 90 | 60 | 75 | – | KERTVISNLR [APG-206] | inhibition at 1 µM [1]: > 70%; Emax ([10]; HepG2, IGF-1 50 ng/ml): 100%
9 | 100 | ≤ 90 | 45 | 50 | – | RTNASVPSI [APG-203] | EC50 ([2]; MB-MDA-231, IGF-1 50 ng/ml): 0.1 nM; EC50 ([3]; IGF-1 50 ng/ml, read-out: potency, inhibition of MCF-7 proliferation): 0.1 to 60 nM; efficacy, inhibition of HepG2 proliferation [10]: 50%; EC50 ([10]; HepG2, IGF-1 50 ng/ml, read-out: EC50, in vitro cell proliferation assay): < 0.1 nM; Emax ([10]; HepG2, IGF-1 50 ng/ml): 100%

Row | Compound | Emax ([2]; MB-MDA-231, IGF-1 50 ng/ml) [%] | inhibition ([3]; IGF-1 50 ng/ml) [%] | Emax [3, 11] [%] | Emax [4] [%] | Emax [5] [%] | further results
10 | CC(C)C[C@@H](NC(=O)[C@H](N)CO)C(=O)N[C@H](Cc1ccccc1)C(=O)N[C@@H](C(=O)N1CCC[C@@H]1C(=O)N[C@H](CCCNC(=N)N)C(=O)N1CCC[C@@H]1C(=O)N[C@H](CCC(=O)O)C(=O)N[C@H](CCCNC(=N)N)C(=O)N[C@H](CCCCN)C(=O)O)C(C)C [APG-201] (H-[dS][dL][dF][dV][dP][dR][dP][dE][dR][dK]-OH; N-terminus and C-terminus assumed) | 100 | – | 20 | – | – | EC50 [6]: 1000 nM; IGF-1 induced proliferation [6, 13]: completely abrogated; potency in MDA-MB-231 ([2]; ER insensitive cells): nanomolar potencies; EC50 ([2]; MB-MDA-231, IGF-1 50 ng/ml): 0.1 nM
